In patent publication US20190125869A1, “PULSED ELECTROMAGNETIC THERAPY FOR DIRECTING AGENTS TO CANCER CELLS” (MMTC, Inc., priority 2017, published 2019):

Test system: AT2 prostatic tumor of rats
Assay: Growth of implanted tumors after intravenous Taxol, with or without pulsed microwaves
Assay type: in vivo, Copenhagen rats
Experimental: Treatment times were 30 minutes.
One rat with four implanted tumors, two in each flank, was used. Taxol was injected intravenously at 5 mg/kg. The two lower (right and left) tumors were treated as described above with pulsed microwaves, beginning immediately after the injection. Tumor growth was monitored over 14 days.

## CC(=O)O[C@H]1C(=O)[C@@]2(C)[C@H]([C@H](OC(=O)c3ccccc3)[C@]3(O)C[C@H](OC(=O)[C@H](O)[C@@H](NC(=O)c4ccccc4)c4ccccc4)C(C)=C1C3(C)C)[C@]1(OC(C)=O)CO[C@@H]1C[C@@H]2O [Taxol]
Taxol 5 mg/kg intravenously plus pulsed microwaves (two treated tumors), after 14 days
  tumor size: barely detectable
Taxol 5 mg/kg intravenously plus pulsed microwaves (two treated tumors), at 5 days
  tumor size: almost disappeared
Taxol 5 mg/kg intravenously, non-pulsed control tumors in the same rat, after 14 days
  tumor growth: continued to grow
Taxol 5 mg/kg intravenously, non-pulsed control tumors in the same rat, at 5 days
  tumor size: remained large
Microwave pulsing combined with systemically administered Taxol, pilot study summary
  remission of tumors: remission of tumors could be obtained
